Experimental data: patent US12371454B2, “Cyclic peptide compound having Kras inhibitory action” (priority 2019, dated 2025)
Starred links: 1 amine or outer side, 2 acyl side, 3 side chain; linkers in the order of their positions; H or OH if unused. Positions of bridges follow the written chain, without caps; N, C: chain ends. Non-standard residues stand in square brackets, D forms with d. Residues, ends and D or L forms follow the SMILES beside them. *: point of attachment. hPhe(3-Cl-4-CF3) = N[C@@H](CCc1ccc(C(F)(F)F)c(Cl)c1)C(=O)O; hPhe(3-F,4-CF3) = N[C@@H](CCc1ccc(C(F)(F)F)c(F)c1)C(=O)O; hPhe(4-CF3) = N[C@@H](CCc1ccc(C(F)(F)F)cc1)C(=O)O; 3Oxa8azabicyclo(3.2.1)octane = C1CC2COCC1N2*; NMePhe(3-F) = CN[C@@H](Cc1cccc(F)c1)C(=O)O; X42 = Cc1ccc(I)cc1C[C@H](N[*:1])C(=O)[*:2]; NMedβ3hAla = C[C@H](CC(=O)[*:2])N(C)[*:1]; NMeAla(cPent) = CN[C@@H](CC1CCCC1)C(=O)O; Phe(3-I) = N[C@@H](Cc1cccc(I)c1)C(=O)O; Pro(4,4-F2) = O=C(O)[C@@H]1CC(F)(F)CN1; NMeY = CN[C@@H](Cc1ccc(O)cc1)C(=O)O; NMeCha = CN[C@@H](CC1CCCCC1)C(=O)O; NMeChg = CN[C@H](C(=O)O)C1CCCCC1; NMeF = CN[C@@H](Cc1ccccc1)C(=O)O; NMeD = CN[C@@H](CC(=O)O)C(=O)O; NMeL = CN[C@@H](CC(C)C)C(=O)O; NMeV = CN[C@H](C(=O)O)C(C)C; d(β3hA) = C[C@@H](N)CC(=O)O; NMeAbu = CC[C@H](NC)C(=O)O; NMeS = CN[C@@H](CO)C(=O)O; NMeA = CN[C@@H](C)C(=O)O; NMeAib = CNC(C)(C)C(=O)O; Nle = CCCC[C@H](N)C(=O)O; Piperidide = C1CCN(*)CC1; Pyrrolidide = C1CCN(*)C1; Ac5c = NC1(C(=O)O)CCCC1; Aze = O=C(O)[C@@H]1CCN1; Cyclopropyl = C1CC1*; Sar = CNCC(=O)O

target: T1, Kras and SOS1 (biotin-tagged human Kras loaded with GDP, His-tagged human SOS1) (Homo sapiens, UniProt P01116, G12D); test: Protein-protein interaction inhibition between Kras and SOS1 (KrasGl2D-SOS PPI) using AlphaScreen; format: binding; details: AlphaScreen; biotin-tagged human Kras loaded with GDP, His-tagged human SOS1; read-out: KRAS G12D-SOS PPI IC50
T1 construct: made in house; host or cells: E. coli (stated for Kras only)
T1 sequence (P01116 1-188 isoform P01116-2 G12D): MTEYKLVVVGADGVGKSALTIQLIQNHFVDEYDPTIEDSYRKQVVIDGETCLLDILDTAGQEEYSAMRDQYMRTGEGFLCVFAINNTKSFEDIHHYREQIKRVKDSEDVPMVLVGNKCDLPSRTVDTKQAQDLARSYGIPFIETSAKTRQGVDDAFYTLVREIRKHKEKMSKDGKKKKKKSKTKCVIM
Method in brief: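 Kras was produced in E. coli, purified, then loaded with GDP. It was paired via streptavidin acceptor beads with His-SOS1 held on nickel donor beads, and proximity signal at 520-620 nm was read after 680 nm illumination.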

Point of comparison: `CC[C@H](C)[C@@H]1NC(=O)[C@H](C)N(C)C(=O)C[C@@H](C)NC(=O)[C@H](CC(C)C)N(C)C(=O)[C@H](Cc2ccccc2)N(C)C(=O)[C@@H]2CCCN2C(=O)[C@H](CCc2ccc(C(F)(F)F)cc2)NC(=O)CN(C)C(=O)[C@H](CC2CCCCC2)N(C)C(=O)CN(C)C(=O)CN(C)C1=O` [Compound 1031] (cyclo(I[Sar][Sar][NMeCha][Sar][hPhe(4-CF3)]P[NMeF][NMeL][d(β3hA)][NMeA])), IC50 320 nM. Against it:
- CC[C@H](C)[C@@H]1NC(=O)[C@H](CC(C)C)N(C)C(=O)C[C@@H](C(=O)N2CCCC2)NC(=O)[C@H](CC(C)C)N(C)C(=O)C2(CCCC2)NC(=O)[C@@H]2CCCN2C(=O)[C@H](CCc2ccc(C(F)(F)F)c(F)c2)NC(=O)CN(C)C(=O)[C@H](CC2CCCCC2)N(C)C(=O)CN(C)C(=O)CN(C)C1=O [Compound 1489] ([NMeL]I[Sar][Sar][NMeCha][Sar][hPhe(3-F,4-CF3)]P[Ac5c][NMeL]D-Pyrrolidide; lactam N-11) — 18-fold lower, 18 nM
- CC[C@H](C)[C@@H]1NC(=O)[C@H](CC(C)C)N(C)C(=O)C[C@@H](C(=O)N2CCCCC2)N(C)C(=O)[C@H](CC(C)C)NC(=O)C(C)(C)N(C)C(=O)[C@H](Cc2ccc(OC)cc2)NC(=O)[C@H](Cc2cccc(I)c2)NC(=O)CN(C)C(=O)[C@H](CC2CCCCC2)N(C)C(=O)[C@@H]2CCN2C(=O)[C@H](C)N(C)C1=O [Compound 169] ([NMeL]I[NMeA][Aze][NMeCha][Sar][Phe(3-I)]Y(Me)[NMeAib]L[NMeD]-Piperidide; lactam N-11) — 20-fold lower, 16 nM
- CC[C@H](C)[C@@H]1NC(=O)[C@H](CC(C)C)N(C)C(=O)C[C@@H](C(=O)N2C3CCC2COC3)N(C)C(=O)[C@H](C2CCCCC2)N(C)C(=O)C2(CCCC2)NC(=O)[C@@H]2CC(F)(F)CN2C(=O)[C@H](CCc2ccc(C(F)(F)F)c(Cl)c2)NC(=O)CN(C)C(=O)[C@H](CC2CCCCC2)N(C)C(=O)CN(C)C(=O)CN(C)C1=O [Compound 1179] ([NMeL]I[Sar][Sar][NMeCha][Sar][hPhe(3-Cl-4-CF3)][Pro(4,4-F2)][Ac5c][NMeChg][NMeD]-{3Oxa8azabicyclo(3.2.1)octane}; lactam N-11) — 620-fold lower, 0.52 nM
- CC[C@H](C)[C@@H]1NC(=O)[C@H](CC(C)C)N(C)C(=O)C[C@@H](C)N(C)C(=O)[C@H](CC(C)C)NC(=O)C(C)(C)N(C)C(=O)[C@H](CC(C)C)NC(=O)[C@H](CCc2ccc(C(F)(F)F)c(F)c2)NC(=O)CN(C)C(=O)[C@H](CC2CCCCC2)N(C)C(=O)[C@@H]2CCN2C(=O)[C@H](C)N(C)C1=O [Compound 686] (cyclo([Aze][NMeCha][Sar][hPhe(3-F,4-CF3)]L[NMeAib]L[NMedβ3hAla][NMeL]I[NMeA])) — 1.9-fold lower, 170 nM
- CCCC[C@@H]1NC(=O)[C@H](Cc2cccc(I)c2)NC(=O)CN(C)C(=O)[C@H](CC2CCCC2)N(C)C(=O)CN(C)C(=O)CN(C)C(=O)[C@H]([C@@H](C)CC)NC(=O)[C@H](CC(C)C)N(C)C(=O)C[C@@H](C(=O)N2CCCCC2)N(C)C(=O)[C@H](CC(C)C)NC(=O)C(C)(C)N(C)C1=O [Compound 1423] ([NMeL]I[Sar][Sar][NMeAla(cPent)][Sar][Phe(3-I)][Nle][NMeAib]L[NMeD]-Piperidide; lactam N-11) — 1.7-fold lower, 190 nM
- CCCC[C@@H]1NC(=O)[C@H](Cc2cc(I)ccc2C)NC(=O)CN(C)C(=O)[C@H](Cc2ccc(OC)cc2)N(C)C(=O)[C@@H]2CCN2C(=O)[C@H](C)N(C)C(=O)[C@H]([C@@H](C)CC)NC(=O)[C@H](CC)N(C)C(=O)C[C@@H](C(=O)N2CCCCC2)N(C)C(=O)[C@H](CC(C)C)NC(=O)C(C)(C)N(C)C1=O [Compound 1358] ([NMeAbu]I[NMeA][Aze][NMeY](Me)[Sar][X42][Nle][NMeAib]L[NMeD]-Piperidide; lactam N-11) — 17-fold lower, 19 nM
- CC[C@H](C)[C@@H]1NC(=O)[C@H](C)N(C)C(=O)C[C@@H](C(=O)N2CCCCC2)N(C)C(=O)[C@H](C(C)C)N(C)C(=O)C2(CCCC2)NC(=O)[C@H](Cc2cccc(F)c2)N(C)C(=O)[C@H](CCc2ccc(C(F)(F)F)c(Cl)c2)NC(=O)CN(C)C(=O)[C@H](CC2CCCCC2)N(C)C(=O)CN(C)C(=O)CN(C)C1=O [Compound 945] ([NMeA]I[Sar][Sar][NMeCha][Sar][hPhe(3-Cl-4-CF3)][NMePhe(3-F)][Ac5c][NMeV][NMeD]-Piperidide; lactam N-11) — 33-fold lower, 9.8 nM
- CC[C@H](C)[C@@H]1NC(=O)[C@H](CC(C)C)N(C)C(=O)C[C@@H](C(=O)N2CCCCC2)N(C)C(=O)[C@H](COC2CC2)N(C)C(=O)C2(CCCC2)NC(=O)[C@@H]2CCCN2C(=O)[C@H](CCc2ccc(C(F)(F)F)c(Cl)c2)NC(=O)CN(C)C(=O)[C@H](CC2CCCCC2)N(C)C(=O)CN(C)C(=O)CN(C)C1=O [Compound 1857] ([NMeL]I[Sar][Sar][NMeCha][Sar][hPhe(3-Cl-4-CF3)]P[Ac5c][NMeS](Cyclopropyl)[NMeD]-Piperidide; lactam N-11) — 17-fold lower, 19 nM
